According to patent publication US20250312416A1, “METHOD AND PHARMACEUTICAL COMPOSITION FOR CARTILAGE REGENERATION” (FAR EASTERN MEMORIAL HOSPITAL, priority 2024, published 2025):
“Also recorded” adds a separate entry of the source.

Tests used:
ADSCs = experiment: Cellular uptake of fluorescently labeled peptides by fluorescence microscopy; format: cell-based, human
Description: Cell-penetrating properties of CXCL14-P and CXCL12-P peptides in ADSCs were analyzed. ADSCs were incubated with 10 ng of FITC-conjugated peptides at 37° C. for one day, followed by refreshing the chondrogenic medium. Peptide internalization was evaluated through fluorescence microscopy on days 1, 3, and 7.
We further explored whether peptides derived from CXCL14 and CXCL12 have the capacity to induce chondrogenesis in MSCs from different sources. To assess their potential, ADSCs were utilized in the study to evaluate the chondrogenic capacity of CXCL14-P and CXCL12-P on day 7 (FIG. 10A). […] FIG. 11 illustrates the cell-penetrating properties of CXCL14-P and CXCL12-P peptides in ADSCs, analyzed at different time points. ADSCs were incubated with FITC-conjugated peptides for one day, after which the chondrogenic medium was refreshed. […] Collectively, these observations indicate that CXCL14-P and CXCL12-P have the ability to stimulate chondrogenesis and further amplify the effects of TGF-β during the chondrogenic process.

UC-MSCs = experiment: Alcian blue staining of chondrogenic pellets (GAG), UC-MSCs; format: cell-based; details: in the presence of TGF-beta
Source text: FIG. 13A provides flowchart illustrating the protocol for peptide treatment and sample collection. […] TGF-beta influenced the expression of chondrogenic genes, including ITGB1 and COMP. […] Treatment with CXCL14/CXCL12 peptides increased GAG content during chondrogenesis in the presence of TGF-beta.
To further validate the role of CXCL14-P and CXCL12-P in regulating chondrogenesis, we compared their effects on another MSC source, umbilical cord-derived mesenchymal stem cells (UC-MSCs). It is important to note that the chondrogenic induction medium contained TGF-β. During chondrogenesis, we observed that the chondrogenic patterns in UC-MSCs were lower than those in ADSCs (FIG. 12). Subsequently, we assessed the chondrogenic potential of UC-MSCs following stimulation with CXCL14-P and CXCL12-P (FIG. 13A). […] Although the expression of chondrogenic genes (FIG. 13B) and GAG content (FIG. 13C) in UC-MSCs was not as pronounced as in ADSCs, the findings confirm that CXCL14-P and CXCL12-P can robustly stimulate chondrogenesis across different MSC sources.

clinical-grade ADSCs [1] = experiment: Real-time PCR of chondrogenic genes in ADSCs; format: cell-based, human
Description: Real-time PCR analysis was conducted on day 7 for CXCL12/CXCL14 peptides treated ADSCs, evaluating the expression of COMP, SOX9, COL2A1, ACAN, ITGB1, and SOSTDC1 genes. Cells were harvested, and RNA extraction was performed using a LightCycler® (Roche Applied Science). The fold change in gene expression on the y-axis was calculated relative to the same gene expression in untreated chondrocytes. Statistical analysis was conducted using one-way ANOVA. Significance levels are denoted as follows: * p<0.05, ** p<0.01, *** p<0.001, and **** p<0.0001 for comparisons between PBS treatments and the untreated group.
Real-time PCR analysis was performed on day 7 for ADSCs treated with CXCR4 agonists, assessing the expression of COMP, SOX9, COL2A1, ACAN, ITGB1, CXCL14, and SOSTIC1 genes. Cellular harvest, RNA extraction, and gene expression quantification were conducted using a LightCycler® (Roche Applied Science). The fold change in gene expression on the y-axis was calculated relative to the same gene expression in untreated chondrocytes. Statistical analysis was executed through one-way ANOVA. Significance levels are represented as follows: * p<0.05, ** p<0.01, *** p<0.001, and **** p<0.0001, indicating the significance of comparisons between PBS treatments and the untreated group.
(§1) Alcian blue staining was used to assess the chondrogenic differentiation of ADSC pellets. […] Treatment with CXCL14-PM1, CXCL14-PM2, CXCL14-PM3, and CXCR4-PM1 was sufficient to enhance the expression of chondrogenic genes in ADSCs. On day 7, real-time PCR was performed to analyze the expression of key chondrogenic markers, including SOX9, COL2A1, COMP, ACAN, ITGB1, CXCL14, and CXCR4, in ADSCs treated with these modified peptides. ADSCs were exposed to distinct peptide modifications derived from CXCL12, CXCL14, and CXCR4 at a concentration of 10 ng for a one-day treatment, after which the medium was replaced with fresh peptide-free medium. At the end of the treatment period, RNA was extracted to evaluate the expression levels of chondrogenesis-related cytokine genes. Gene expression quantification was performed using a LightCycler system (Roche Applied Science), and fold changes were calculated relative to untreated control ADSCs. […] FIG. 16(D) provides a summary of the results for alanine substitution with positively or negatively charged amino acids in CXCL12, CXCL14, and CXCR4 peptides.
ADSCs were treated with CXCL14-P, CXCL14-P1, or CXCL14-P2, respectively, at a concentration of 10 ng for 24 hours, after which the medium was replaced with fresh peptide-free medium. On day 7, total RNA was extracted, and real-time PCR analysis was performed to assess the expression levels of key chondrogenic markers, including ACAN, COL2A1, SOX9, and COMP. Gene expression levels were quantified using a LightCycler system (Roche Applied Science), with fold changes calculated relative to untreated control ADSCs. […] Immunofluorescence staining was performed to detect Collagen Type II, SOX9, COMP, and nuclei (Hoechst 33342) in 3D ADSC spheroids (middle panel). […]
Human IPFP-MSCs and ADSCs were expanded in Dulbecco's Modified Eagle's Medium (DMEM, Gibco, cat. no 2145484) with 10% FBS under a 37° C., 5% CO2 atmosphere. MSCs collected and cell extractions were determined gene expression levels of cytokines and chondrogenic markers using a LightCycler® (Roche Applied Science). The fold change in gene expression on the y-axis was calculated based on untreated cell gene expression.

clinical-grade ADSCs [2] = experiment: Alcian blue staining of chondrogenic pellets (GAG), ADSCs; format: cell-based, human
Description: The chondrogenic differentiation of pellets containing clinical-grade ADSCs was assessed through Alcian blue staining.
The chondrogenic differentiation of pellets containing clinical-grade ADSCs was evaluated using Alcian blue staining.
as §1
To assess differentiation capacity, single-cell suspensions from cultured IPFP-MSCs and ADSCs were cultivated in chondrogenic medium. Alcian Blue staining was performed on day 7 to evaluate chondrogenic differentiation. The chondrogenic differentiation test was measured gene expressions of ACAN, COL2A1, SOX9, COMP, ITGB1, CXCL14 and SOSTDC1.

Q: Which “cellular uptake / detectability of peptide” value (ADSCs; 10 ng FAM-labeled, 24 hours then peptide-free medium, monitored to day 7) does the source give for ITTKSVSRYRGQEH [CXCL14-P] here?
A: detectable on day 1 but became undetectable by day 7

Q: And the “peptide internalization (cell penetration)” value (ADSCs; 10 ng FITC-conjugated peptide, 37° C. for one day, observed days 1, 3, 7)?
A: remain detectable up to day 7

Q: And the “GAG content (Alcian blue)” value (UC-MSCs)?
A: increased

Q: And the “expression of chondrogenic genes (COMP, SOX9, COL2A1, ACAN, ITGB1, SOSTDC1)” value (clinical-grade ADSCs [1]; day 7, peptides compared to CXCL12/CXCL14 proteins, listed as CXCL14 peptide)?
A: significantly upregulated; also recorded: greater ability

Q: What about the “expression of chondrogenic genes (COMP, SOX9, COL2A1, ACAN, ITGB1)” value (clinical-grade ADSCs [1]; day 7 of treatment with peptide) of the same sequence?
A: significantly upregulated

Q: And the chondrogenic genes (clinical-grade ADSCs [1]; in the absence of TGF-β)?
A: evident

Q: And the “expression of chondrogenic genes ITGB1 and COMP” value (clinical-grade ADSCs [1]; in the presence of TGF-β, day 7)?
A: significantly enhanced

Q: And the “GAG content (Alcian blue)” value (clinical-grade ADSCs [2]; in the absence of TGF-β)?
A: evident

Q: What about the “GAG content (Alcian blue)” value (clinical-grade ADSCs [2]; in the presence of TGF-beta) of the same sequence?
A: significantly increased

Q: What about the “GAG content (Alcian blue)” value (clinical-grade ADSCs [2]; peptides compared to CXCL14/CXCL12 proteins, listed as CXCL14 peptide) of the same sequence?
A: significantly higher; also recorded: greater ability
